# According to PubChem BioAssay (NCI):
#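 Where inhibition never reached the appropriate level, the endpoint shown equals the highest concentration tested. Otherwise, values were interpolated linearly from a five-concentration, 48-hour dose response in 96-well plates. At the GI50, growth is halved. TGI denotes the concentration required for complete inhibition of growth.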 Where a SMILES comes first, the peptide text is derived from it. [ ]: non-standard residue; d: D form. β3hI = CC[CH](C)[CH](N)CC(=O)O
# Columns and labels:
# Test in all cases: DTP human tumour cell line panel, 48 h
# [1] = tested on: MDA-MB-435
# [2] = tested on: IGROV1 ovarian
# [3] = tested on: BT-549 breast
# [4] = tested on: TK-10 renal
# [5] = tested on: K-562 leukemia
# [6] = tested on: EKVX NSCLC
# [7] = tested on: SR leukemia
# [8] = tested on: KM12 colon
# [9] = tested on: MDA-MB-231 breast
# [10] = tested on: SW-620 colon
# [11] = tested on: A498 renal
# [12] = tested on: M14 melanoma
smiles,measurement,setting,value
CN(C1=NCCO1)c1cccc2c1CCCC2,TGI,[1],> 10 µM
same,TGI,[2],8.35 µM
same,TGI,[3],> 10 µM
same,TGI,[4],> 10 µM
same,TGI,[5],> 10 µM
same,TGI,[6],> 10 µM
same,TGI,[7],> 10 µM
same,TGI,[8],> 10 µM
same,TGI,[9],5.28 µM
same,TGI,[10],> 10 µM
same,TGI,[11],9.35 µM
same,TGI,[12],6.09 µM
CCOC(=O)CCC(NC(=O)c1ccc(OCc2nc3ccccc3n3cccc23)cc1)C(=O)OCC (stereo not given),TGI,[1],> 100 µM
same,TGI,[2],> 100 µM
same,TGI,[3],> 100 µM
same,TGI,[4],> 100 µM
same,TGI,[5],> 100 µM
same,TGI,[6],> 100 µM
same,TGI,[7],> 100 µM
same,TGI,[8],> 100 µM
same,TGI,[9],> 100 µM
same,TGI,[10],> 100 µM
same,TGI,[11],> 100 µM
same,TGI,[12],> 100 µM
COc1cc([N+](=O)[O-])ccc1NC1=CC(=O)CCC1,TGI,[1],> 100 µM
same,TGI,[2],> 100 µM
same,TGI,[3],> 100 µM
same,TGI,[4],> 100 µM
same,TGI,[5],> 100 µM
same,TGI,[6],> 100 µM
same,TGI,[7],> 100 µM
same,TGI,[8],> 100 µM
same,TGI,[9],> 100 µM
same,TGI,[10],> 100 µM
same,TGI,[11],> 100 µM
same,TGI,[12],> 100 µM
COc1ccc2[nH]c3c(c2c1)COc1ccccc1C3=O,TGI,[1],> 100 µM
same,TGI,[2],> 100 µM
same,TGI,[3],> 100 µM
same,TGI,[4],> 100 µM
same,TGI,[5],> 100 µM
same,TGI,[6],> 100 µM
same,TGI,[7],> 100 µM
same,TGI,[8],> 100 µM
same,TGI,[9],> 100 µM
same,TGI,[10],> 100 µM
same,TGI,[11],> 100 µM
same,TGI,[12],> 100 µM
CC(C)NC(=O)OCc1c(COC(=O)NC(C)C)n(C)c2c1ccc1ccccc12,TGI,[1],4.9 µM
same,TGI,[2],3.23 µM
same,TGI,[3],1.58 µM
same,TGI,[4],3.04 µM
same,TGI,[5],> 20 µM
same,TGI,[6],10.4 µM
same,TGI,[7],> 100 µM
same,TGI,[8],15.5 µM
same,TGI,[9],3.6 µM
same,TGI,[10],2.4 µM
same,TGI,[11],3.01 µM
same,TGI,[12],3.2 µM
CCOC(=O)CCC(NC(=O)Cc1ccc(Oc2nc3ccccc3nc2-c2cccs2)cc1)C(=O)OCC (stereo not given),TGI,[1],> 100 µM
same,TGI,[2],> 100 µM
same,TGI,[3],> 100 µM
same,TGI,[4],69.2 µM
same,TGI,[5],> 100 µM
same,TGI,[6],> 100 µM
same,TGI,[7],> 100 µM
same,TGI,[8],> 100 µM
same,TGI,[9],29.1 µM
same,TGI,[10],> 100 µM
same,TGI,[11],84.1 µM
same,TGI,[12],> 100 µM
C=C1c2nc3ccccc3n2C=C(c2ccccc2)N1c1ccccc1,TGI,[1],> 100 µM
same,TGI,[2],> 100 µM
same,TGI,[3],98.5 µM
same,TGI,[4],> 100 µM
same,TGI,[5],> 100 µM
same,TGI,[6],> 100 µM
same,TGI,[7],> 100 µM
same,TGI,[8],59.8 µM
same,TGI,[9],> 100 µM
same,TGI,[10],> 100 µM
same,TGI,[11],> 100 µM
same,TGI,[12],> 100 µM
OC1CN2CCS[C@H]2C(O)C1O (stereo not given in full),TGI,[1],> 100 µM
same,TGI,[2],> 100 µM
same,TGI,[3],> 100 µM
same,TGI,[4],> 100 µM
same,TGI,[5],> 100 µM
same,TGI,[6],> 100 µM
same,TGI,[7],> 100 µM
same,TGI,[8],> 100 µM
same,TGI,[9],> 100 µM
same,TGI,[10],> 100 µM
same,TGI,[11],> 100 µM
same,TGI,[12],> 100 µM
CC(=O)Oc1cc2c(cc1OC(C)=O)[C@H]1CC[C@]3(C)[C@@H](OC(C)=O)CC[C@H]3[C@@H]1CC2,GI50,[1],0.316 µM
same,TGI,[1],9.65 µM
same,TGI,[2],19.1 µM
same,TGI,[3],11.2 µM
same,TGI,[4],20.8 µM
same,TGI,[5],16.8 µM
same,TGI,[6],9.64 µM
same,TGI,[7],5.77 µM
same,TGI,[8],23.4 µM
same,TGI,[9],26.3 µM
same,TGI,[10],15.4 µM
same,TGI,[11],25.6 µM
same,TGI,[12],21.1 µM
Oc1c(C2=N[C@H]3CCCC[C@@H]3N2)ccc2ccccc12,TGI,[1],> 100 µM
same,TGI,[2],> 100 µM
same,TGI,[3],> 100 µM
same,TGI,[4],> 100 µM
same,TGI,[5],> 100 µM
same,TGI,[6],> 100 µM
same,TGI,[7],> 100 µM
same,TGI,[8],> 100 µM
same,TGI,[9],> 100 µM
same,TGI,[10],> 100 µM
same,TGI,[11],> 100 µM
same,TGI,[12],> 100 µM
Cc1c2c(n(Cc3ccccn3)c1C)NN=C(C#N)S2(=O)=O,TGI,[1],> 100 µM
same,TGI,[2],> 100 µM
same,TGI,[3],> 100 µM
same,TGI,[4],> 100 µM
same,TGI,[6],> 100 µM
same,TGI,[7],> 100 µM
same,TGI,[8],> 100 µM
same,TGI,[9],> 100 µM
same,TGI,[10],> 100 µM
same,TGI,[11],> 100 µM
same,TGI,[12],> 100 µM
COc1cccc(N2C(=O)CSC2c2cc(OC)c(OC)c(OC)c2)c1 (stereo not given),TGI,[1],17.6 µM
same,TGI,[2],> 100 µM
same,TGI,[3],64.6 µM
same,TGI,[4],> 100 µM
same,TGI,[5],> 100 µM
same,TGI,[6],> 100 µM
same,TGI,[7],> 100 µM
same,TGI,[8],> 100 µM
same,TGI,[9],> 100 µM
same,TGI,[10],> 100 µM
same,TGI,[11],> 100 µM
same,TGI,[12],> 100 µM
CCC(C)C(CC(=O)N1CCCC1C(=O)NC(C(=O)NC(C(=O)NCC(=O)NC(CC(N)=O)C(=O)NC(C(=O)NC(C(=O)NC(CCCCN)C(N)=O)C(C)CC)C(C)CC)C(C)C)C(C)CC)NC(=O)C(N)C(C)CC (stereo not drawn) (H-I[β3hI]PIVGNIIK-NH2; configuration not given here),TGI,[1],> 50 µM
same,TGI,[2],> 50 µM
same,TGI,[3],> 50 µM
same,TGI,[4],> 50 µM
same,TGI,[6],> 50 µM
same,TGI,[7],> 50 µM
same,TGI,[8],> 50 µM
same,TGI,[9],> 50 µM
same,TGI,[10],> 50 µM
same,TGI,[11],> 50 µM
same,TGI,[12],> 50 µM
